Experimental data taken from patent US20120115845A1, “THERAPEUTIC AGENTS” (priority 2007, published 2012).

Key:
human GHS receptor [1] = biological target: T1, human GHS receptor (Homo sapiens, UniProt Q92847); assay: Ghrelin IP1 agonist assay (IP1 HTRF); format: cell-based; design: expressed in transfected cells; host or cells: HEK293s; settings: for Emax: 2 h, agonist effect as % maximal effect of GHRP-6 (5 μM), read-out: h IP1 ag %; for EC50: HEK293s cells stably expressing human GHS receptor, 2 hours at 37° C., read-out: h IP1 ag EC50
Summary of the method: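 Cells: HEK293s stably expressing human GHS receptor, in stimulation buffer containing 0.02% fatty acid free BSA.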

human GHS receptor [2] = biological target: T1, human GHS receptor; assay: h bind IC50 (binding assay, Table 1); settings: human receptor; Table 1

T1 sequence (Q92847 whole entry): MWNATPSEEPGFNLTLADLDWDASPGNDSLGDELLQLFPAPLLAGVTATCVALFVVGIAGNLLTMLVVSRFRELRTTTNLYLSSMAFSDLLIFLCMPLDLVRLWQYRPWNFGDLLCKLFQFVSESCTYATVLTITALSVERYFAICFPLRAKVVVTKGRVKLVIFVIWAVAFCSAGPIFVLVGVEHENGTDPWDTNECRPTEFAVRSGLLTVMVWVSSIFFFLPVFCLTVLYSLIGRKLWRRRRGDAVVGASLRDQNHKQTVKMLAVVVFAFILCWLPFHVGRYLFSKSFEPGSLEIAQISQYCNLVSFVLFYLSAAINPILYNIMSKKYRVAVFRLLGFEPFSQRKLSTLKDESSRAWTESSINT

Structure (SMILES) | Emax (human GHS receptor [1]) | EC50 (human GHS receptor [1]) | IC50 (human GHS receptor [2])
CS(=O)(=O)c1ccc2nc(NC(=O)NC(=O)c3cc(-n4cccn4)ccc3Cl)sc2c1 [Example 46, 2-Chloro-5-(pyrazol-1-yl)-N-(6-(methylsulfonyl)benzothiazol-2-ylcarbamoyl)benzamide] | 0.5% | 8240 nM | 12 nM
O=C(NC(=O)c1ccccc1Cl)Nc1nc2ccc(S(=O)(=O)CCCNCCO)cc2s1 [Example 159, 2-Chloro-N-[[6-[3-(2-hydroxyethylamino)propylsulfonyl]benzothiazol-2-yl]carbamoyl]benzamide] | 51.6% | 17.6 nM | 8.5 nM
CCN(CC)CCCS(=O)(=O)c1ccc2nc(NC(=O)NC(=O)c3ccccc3Cl)sc2c1 [Example 153, 2-Chloro-N-[[6-(3-diethylaminopropylsulfonyl)benzothiazol-2-yl]carbamoyl]benzamide] | 47% | 10.9 nM | 12.5 nM
CS(=O)(=O)c1ccc2nc(NC(=O)NC(=O)c3cc(-c4ccccn4)ccc3Cl)sc2c1 [Example 45, 2-Chloro-5-(pyridin-2-yl)-N-(6-(methylsulfonyl)benzothiazol-2-ylcarbamoyl)benzamide] | 0.946% | ≥ 25000 nM | 21.4 nM
CS(=O)(=O)c1ccc2nc(NC(=O)NC(=O)c3cc(N4CCCC4)ccc3Cl)sc2c1 [Example 48, 2-Chloro-5-(1-pyrrolidinyl)-N-(6-(methylsulfonyl)benzothiazol-2-ylcarbamoyl)benzamide] | 0.32% | ≥ 25000 nM | 1.3 nM
O=C(NC(=O)c1ccccc1Cl)Nc1nc2ccc(S(=O)(=O)Cc3ccccn3)cc2s1 [Example 178, 2-Chloro-N-[[6-(pyridin-2-ylmethylsulfonyl)benzothiazol-2-yl]carbamoyl]benzamide] | 18.7% | 77.7 nM | 108 nM
O=C(NC(=O)c1ccccc1Cl)Nc1nc2ccc(S(=O)(=O)CCN3CC[C@@H](F)C3)cc2s1 [Example 32, 2-Chloro-N-[[6-[2-[(3R)-3-fluoropyrrolidin-1-yl]ethylsulfonyl]benzothiazol-2-yl]carbamoyl]benzamide] | 28% | 309 nM | 400 nM
CC1CN(CCS(=O)(=O)c2ccc3nc(NC(=O)NC(=O)c4ccccc4Cl)sc3c2)CC(C)N1 (stereo not drawn) [Example 24, 2-Chloro-N-[[6-[2-(3,5-dimethylpiperazin-1-yl)ethylsulfonyl]benzothiazol-2-yl]carbamoyl]benzamide] | 54% | 6.43 nM | 25.3 nM
CN1CCN(CCCS(=O)(=O)c2ccc3nc(NC(=O)NC(=O)c4cc(-c5cncs5)ccc4Cl)sc3c2)CC1 [Example 96, 2-Chloro-N-(6-(3-(4-methylpiperazin-1-yl)propylsulfonyl)benzothiazol-2-ylcarbamoyl)-5-(thiazol-5-yl)benzamide] | 13.1% | 432 nM | 2.9 nM
CS(=O)(=O)c1ccc2nc(NC(=O)NC(=O)c3ccccc3F)sc2c1 [Example 108, 2-Fluoro-N-[(6-methylsulfonylbenzothiazol-2-yl)carbamoyl]benzamide] | 8.69% | 24300 nM | 1640 nM
O=C(NC(=O)c1ccccc1Cl)Nc1nc2ccc(S(=O)(=O)C[C@H]3CCCN3)cc2s1 [Example 165, 2-Chloro-N-[[6-[[(2R)-pyrrolidin-2-yl]methylsulfonyl]benzothiazol-2-yl]carbamoyl]benzamide] | 49.4% | 67.1 nM | 127 nM
CS(=O)(=O)c1ccc2nc(NC(=O)NC(=O)c3ccccc3Cl)sc2c1 [Example 102, 2-Chloro-N-[(6-methylsulfonylbenzothiazol-2-yl)carbamoyl]benzamide] | 24.2% | 57.8 nM | 116 nM
Cc1ccnn1-c1ccc(Cl)c(C(=O)NC(=O)Nc2nc3ccc(S(C)(=O)=O)cc3s2)c1 [Example 55, 2-Chloro-5-(5-methyl-1H-pyrazol-1-yl)-N-(6-(methylsulfonyl)benzothiazol-2-ylcarbamoyl)benzamide] | 48.9% | 5.7 nM | 23.1 nM
CS(=O)(=O)c1ccc2nc(NC(=O)NC(=O)c3cc(OC4CCCC4)ccc3Cl)sc2c1 [Example 51, 2-Chloro-5-cyclopentyloxy-N-(6-(methylsulfonyl)benzothiazol-2-ylcarbamoyl)benzamide] | 1% | 16 nM | 14.2 nM
CN1CCN(CCCS(=O)(=O)c2ccc3nc(NC(=O)NC(=O)c4cc(-n5cncn5)ccc4Cl)sc3c2)CC1 [Example 95, 2-Chloro-N-(6-(3-(4-methylpiperazin-1-yl)propylsulfonyl)benzothiazol-2-ylcarbamoyl)-5-(1H-1,2,4-triazol-1-yl)benzamide] | 9.48% | 1160 nM | 10.7 nM
CS(=O)(=O)c1ccc2nc(NC(=O)NC(=O)c3cc(-n4ccnc4)ccc3Cl)sc2c1 [Example 69, 2-Chloro-5-(1H-imidazol-1-yl)-N-(6-(methylsulfonyl)benzothiazol-2-ylcarbamoyl)benzamide] | 14.1% | 3010 nM | 37.4 nM
CS(=O)(=O)Oc1ccc(Cl)c(C(=O)NC(=O)Nc2nc3ccc(S(C)(=O)=O)cc3s2)c1 [Example 58, 4-Chloro-3-(6-(methylsulfonyl)benzothiazol-2-ylcarbamoylcarbamoyl)phenyl methanesulfonate] | 8.82% | 3010 nM | 1310 nM

Other lines, results leading:

Emax (human GHS receptor [1]) | EC50 (human GHS receptor [1]) | IC50 (human GHS receptor [2]) | Structure (SMILES)
0% | ≥ 20000 nM | 58.9 nM | CCOc1cc(C(=O)NC(=O)Nc2nc3ccc(S(=O)(=O)C4CCN(C)CC4)cc3s2)c(Cl)cc1OC [Example 256, 2-chloro-5-ethoxy-4-methoxy-N-(6-(1-methylpiperidin-4-ylsulfonyl)benzo [d]thiazol-2-ylcarbamoyl) benzamide]
3.07% | 347 nM | 59 nM | CC(C)(C)OC(=O)N1CCC(Oc2ccc(Cl)c(C(=O)NC(=O)Nc3nc4ccc(S(C)(=O)=O)cc4s3)c2)C1 (stereo not drawn) [Example 248, tert-butyl 3-(4-chloro-3-(6-(methylsulfonyl)benzo[d]thiazol-2-ylcarbamoyl-carbamoyl)phenoxy) pyrrolidine-1-carboxylate]
10.6% | ≥ 20000 nM | 3790 nM | CC(=O)N1CCC(Oc2ccc(Cl)c(C(=O)NC(=O)Nc3nc4ccc(S(C)(=O)=O)cc4s3)c2)C1 (stereo not drawn) [Example 227, 5-(1-acetylpyrrolidin-3-yloxy)-2-chloro-N-(6-(methylsulfonyl)benzo[d]thiazol-2-ylcarbamoyl)benzamide]
9.98% | 43.4 nM | 0.47 nM | CN1CCCN(CCCS(=O)(=O)c2ccc3nc(NC(=O)NC(=O)c4cc(I)ccc4Cl)sc3c2)CC1 [Example 238, 2-chloro-5-iodo-N-(6-(3-(4-methyl-1,4-diazepan-1-yl)propylsulfonyl)benzo[d]thiazol-2-ylcarbamoyl) benzamide]
11.3% | 7320 nM | 965 nM | CN(C)C1CCCN(c2ccc(Cl)c(C(=O)NC(=O)Nc3nc4ccc(S(C)(=O)=O)cc4s3)c2)C1 (stereo not drawn) [Example 268, 2-Chloro-5-(3-dimethylamino-1-piperidyl)-N-[(6-methylsulfonyl-1,3-benzothiazol-2-yl)carbamoyl]benzamide]
29.4% | 6.22 nM | 14.9 nM | COCCNCCCS(=O)(=O)c1ccc2nc(NC(=O)NC(=O)c3ccccc3Cl)sc2c1 [Example 203, 2-Chloro-N-[[6-[3-(2-methoxyethylamino)propylsulfonyl]benzothiazol-2-yl]carbamoyl]benzamide]
30.6% | 18.5 nM | 25.9 nM | O=C(NC(=O)c1ccccc1Cl)Nc1nc2ccc(S(=O)(=O)CCCn3ccnc3)cc2s1 [Example 193, 2-Chloro-N-[[6-(3-imidazol-1-ylpropylsulfonyl)benzothiazol-2-yl]carbamoyl]benzamide]
30.7% | 13.5 nM | 18.1 nM | CS(=O)(=O)N1CCN(CCCS(=O)(=O)c2ccc3nc(NC(=O)NC(=O)c4ccccc4Cl)sc3c2)CC1 [Example 208, 2-Chloro-N-[[6-[3-(4-methylsulfonylpiperazin-1-yl)propylsulfonyl]benzothiazol-2-yl]carbamoyl]benzamide]
22.3% | 2.19 nM | 0.05 nM | CCc1ccc(Cl)c(C(=O)NC(=O)Nc2nc3ccc(S(=O)(=O)CCCN4CCN(C)CC4)cc3s2)c1 [Example 226, 2-chloro-5-ethyl-N-(6-(3-(4-methylpiperazin-1-yl)propylsulfonyl)-benzo[d]thiazol-2-ylcarbamoyl)benzamide]
39.5% | 2 nM | 5.3 nM | CC(C)(C)OC(=O)N1CCN(CCCS(=O)(=O)c2ccc3nc(NC(=O)NC(=O)c4ccccc4Cl)sc3c2)CC1 [Example 205, tert-Butyl 4-[3-[2-[(2-chlorobenzoyl)carbamoylamino]benzothiazol-6-yl]sulfonylpropyl]piperazine-1-carboxylate]
65% | 18.7 nM | 15.4 nM | O=C(NC(=O)c1ccccc1Cl)Nc1nc2ccc(S(=O)(=O)CCC3CCNCC3)cc2s1 [Example 221, 2-Chloro-N-[[6-[2-(4-piperidyl)ethylsulfonyl]benzothiazol-2-yl]carbamoyl]benzamide]
3.72% | ≥ 20000 nM | 4090 nM | CN(C)C1CCN(c2ccc(Cl)c(C(=O)NC(=O)Nc3nc4ccc(S(C)(=O)=O)cc4s3)c2)CC1 [Example 236, 2-chloro-5-(4-(dimethylamino)piperidin-1-yl)-N-(6-(methylsulfonyl)benzo[d]thiazo1-2-ylcarbamoyl) benzamide]
